Laboratory results: US12018265B2, “Nucleic acid encoding n-methylputrescine oxidase and uses thereof” (22nd Century Limited, LLC, priority 2006, dated 2024)
One block for each compound: values may come before it.

What was measured:
MPO = details: compared with N-methylated diamines; Hashimoto 1990, Walton and McLauchlan 1990, Boswell 1999; cited from earlier work
[1] = tested on: MPO and PMT expression in roots; assay: qRT-PCR analysis of MPO and PMT expression in MeJa-treated roots; type: in vivo, Nicotiana benthamiana; details: MeJa 11 μM in hydroponic solution
Protocol: Nicotiana benthamiana (Solanaceae) seedlings were grown hydroponically in 0.25× Hoagland's solution supplemented with iron chelate solution and oxygenated using an aquarium bubbler. Roots from three-week old plants were sampled before (t=0) and at 1, 4, and 7 hours after addition of MeJa to a final concentration of 11 μM. Total RNA was isolated from 450 mg each of untreated leaves, untreated roots, and a combined MeJa-treated root sample composed of 150 mg roots each from the 1, 4 and 7 hour time points using a RNeasy midi kit (Qiagen). We constructed three separate subtractive cDNA libraries: NBREL2, with mRNA pooled from MeJa-treated roots as tester and untreated root mRNA as driver; NBLEL3, with mRNA pooled from MeJa-treated roots as tester and leaf mRNA as driver; and NBREL4, with mRNA pooled from MeJa-treated roots as both tester and driver.
The inducibility of MPO by MeJa application was determined using quantitative RT-PCR (qRT-PCR). The same PCR primers were used as for RT-PCR analysis of expression in different tissues. Total RNA was extracted from hydroponically grown roots immediately before and 1, 4, and 7 hours after addition of MeJa (11 μM) to the hydroponic solution. Hydroponic conditions are detailed in Example 1. […]

[2] = tested on: recombinant MPO (N-methylputrescine oxidase); assay: Recombinant MPO enzyme assay (Amplex red hydrogen peroxide/peroxidase system); type: biochemical, Nicotiana benthamiana
Protocol: Protein extracts was prepared from the roots of buffer control, TRV-GFP and TRV-MPO (214D11) infected plants. The extraction method described in Hashimoto T. et al. (Plant Physiol. 93: 216-221 (1990)) was used. Briefly, 1 g roots was ground in liquid nitrogen and suspended in 20 ml of extraction buffer containing 100 mM potassium phosphate pH 7.5, 0.25 M sucrose, 5 mM EDTA, 0.3% ascorbate and 10% PVPP. After centrifugation at 500 g for 30 min, the supernatant was further centrifuged at 11,000 g for another 30 minutes. The supernatant was subjected to two rounds of 20% and 40% ammonium sulphate precipitation. The precipitate was resuspended in 1 ml water, followed by dialysis overnight in 2 l of buffer containing 20 mM potassium phosphate pH 7.5, 1 mM DTT and 20% glycerol. The protein concentration was determined by DC protein assay kit (BioRad). […] After incubating the mixture at 30° C. for 30 min, the fluorescence was measured with a fluorescence microplate reader (Victor3 UV multilabel reader, PerkinElmer) using excitation at 530-560 nm and emission at 590 nm.
The ORF of the N. benthamiana MPO was expressed in E. coli and the recombinant enzyme was purified for biochemical characterization. […] The protein concentration was determined with DC protein assay kit (BioRad) and MPO purity was analyzed with SDS-PAGE electrophoresis (BioRad). […]

SMILES: NCCCCCN [Cadaverine]
Affinity as substrate for MPO (MPO): lower affinity than N-methylated diamines

SMILES: CC/C=C\CC1C(=O)CCC1CC(=O)OC (centres unmarked) [MeJa, methyljasmonate]
Increase of MPO expression over pre-induction levels ([1]; roots before and 1, 4, 7 hours after, actin reference (FIG. 3)): 23 fold | Change of PMT transcript levels in response to the inducer ([1]; roots, compared with MPO (FIG. 3)): even more dramatic increase

Km ([2]; 1 μg Talon purified MPO, N-methylputrescine 10 mM to 0.01 mM, 30°, 30 minutes): 100 µM
SMILES: CNCCCCN [N-methylputrescine]
Substrate specificity of recombinant MPO ([2]; 1 mM of N-methylputrescine, putrescine, diaminopropane, cadaverine, spermine and spermidine (FIG. 9)): preferred N-methylputrescine as a substrate
